From publication PMC11870037 (Molecules, 2024)

How the values were obtained:
adrenergic α1 receptor = assay: Adrenergic α1 receptor binding assay ([3H]prazosin); details: rat cerebral cortex, means ± SEM of three experiments, read-out: Receptor Affinity Ki ± SEM α1
mice [1] = details: oral, immobility duration
[2] = target: T1, Serotonin 5-HT2C receptor (Rattus norvegicus, UniProt P08909); assay: Serotonin 5-HT2C receptor binding ([3H]mesulergine); details: rat brain cortex
T1 construct: The cerebral cortex of a rat was processed by homogenization; from tissue; host or cells: rat cerebral cortex membranes
T1 sequence (P08909 33-460): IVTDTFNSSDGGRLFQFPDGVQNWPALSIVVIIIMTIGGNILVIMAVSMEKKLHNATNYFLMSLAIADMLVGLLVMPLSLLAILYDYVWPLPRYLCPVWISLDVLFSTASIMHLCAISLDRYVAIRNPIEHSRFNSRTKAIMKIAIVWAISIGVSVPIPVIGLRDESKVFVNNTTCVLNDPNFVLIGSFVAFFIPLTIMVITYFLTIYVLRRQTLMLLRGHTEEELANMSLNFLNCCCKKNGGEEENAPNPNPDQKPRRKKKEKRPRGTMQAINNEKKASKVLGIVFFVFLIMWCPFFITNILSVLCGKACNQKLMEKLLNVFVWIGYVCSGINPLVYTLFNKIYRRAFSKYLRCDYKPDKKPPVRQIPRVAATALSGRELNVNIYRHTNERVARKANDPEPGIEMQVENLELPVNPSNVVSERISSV

[3] = Pharmacokinetic study in rats; format: in vivo; details: rat, plasma
Description: 7. Pharmacokinetics Study
The HPLC conditions were as follows: Shimadzu LC30AD spectrometer ; column, SHIMADZU C18 (2.1 mm×50 mm, 2 μm); mobile phase A: 0.1% FA-Acetonitrile; mobile phase B: 0.1% FA-Deionized water; ﬂow rate, 0.4 mL/min; column temperature: 25 °C; UV detection was performed at 210 nm. The Mass conditions were as follows: ESI (positive), Ion spray voltage: 5500V, Curtain gass: 30, Temperature: 550°C, Ion Source Gas1: 55, Collision Gas: 7. For routine compound 11b screening, rats (n = 6/group) were dosed via the lateral tail vein at the indicated dose for iv administration (2 mg/kg, NS) or via oral gavage (20 mg/kg, Deionized water). At 0, 0.08, 0.25, 0.5,1、2、4、7、10 and 24h after administration, serial blood samples were collected from the lateral tail vein into heparinized collection tubes (approximately 0.25 mL). The plasma was separated by centrifugation, and the sample was prepared for LC/MS analysis by protein precipitation with acetonitrile. The plasma samples were analyzed for drug and internal standard via the LCMS/MS protocol.

NET = NET (Rattus norvegicus, UniProt Q63380); assay: Monoamine uptake transporter assay, [3H]NE uptake by NET; format: biochemical
Chain of NET (Q63380 1-617): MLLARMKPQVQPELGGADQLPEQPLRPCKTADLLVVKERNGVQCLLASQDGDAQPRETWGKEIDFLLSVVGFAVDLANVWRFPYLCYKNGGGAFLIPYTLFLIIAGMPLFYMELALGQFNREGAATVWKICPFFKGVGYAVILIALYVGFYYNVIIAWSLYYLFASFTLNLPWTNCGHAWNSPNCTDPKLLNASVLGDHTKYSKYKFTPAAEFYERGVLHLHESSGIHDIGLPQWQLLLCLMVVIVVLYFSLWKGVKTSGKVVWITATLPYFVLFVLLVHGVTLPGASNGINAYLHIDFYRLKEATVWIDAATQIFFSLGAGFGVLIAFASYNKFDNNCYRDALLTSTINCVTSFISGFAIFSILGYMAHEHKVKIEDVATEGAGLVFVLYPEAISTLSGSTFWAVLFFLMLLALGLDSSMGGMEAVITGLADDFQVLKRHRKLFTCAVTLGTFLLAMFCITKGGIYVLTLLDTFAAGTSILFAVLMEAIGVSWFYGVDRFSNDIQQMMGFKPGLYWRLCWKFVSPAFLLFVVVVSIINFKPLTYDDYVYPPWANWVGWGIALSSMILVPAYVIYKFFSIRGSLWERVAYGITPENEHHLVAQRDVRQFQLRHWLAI

NMDA receptor = NMDA receptor (Rattus norvegicus, UniProt P35439); assay: NMDA receptor binding; details: read-out: Ki NDMA
σ1 receptor = target: T2, σ1 receptor (Cavia porcellus, UniProt Q60492); assay: σ1 receptor binding ([3H]-(+)-pentazocine); details: guinea pig brain membrane
T2 construct: from tissue; host or cells: guinea pig brain membranes
T2 sequence (Q60492 whole entry): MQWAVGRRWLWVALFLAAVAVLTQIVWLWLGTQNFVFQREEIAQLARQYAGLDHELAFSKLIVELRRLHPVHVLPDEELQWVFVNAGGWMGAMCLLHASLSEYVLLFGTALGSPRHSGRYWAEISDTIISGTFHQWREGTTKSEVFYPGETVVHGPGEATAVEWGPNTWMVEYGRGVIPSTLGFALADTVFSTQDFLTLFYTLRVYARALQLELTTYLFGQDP
Description: (§1) Antagonist potency was determined according to literature, by measuring inhibition of RAMH-induced [35S]GTPγS binding in recombinant hH3R membranes as previously. The […]
(§2) Inverse agonist potency was conducted by measuring inhibition of basal [35S]GTPγS binding in recombinant hH3 Rmembranes. Test compound or vehicle was added to the wells, followed by [35S]GTPγS to a final concentration of 0.2 nM. Nonspecific binding was determined in the presence of 10 μM unlabeled GTPγS. The control agonist signal was determined in wells containing vehicle in place of the test compound, and the basal signal was determined in wells containing vehicle in place of both diluted compound and the RAMH […]
(§3) 3. Selectivity of Compound 11b for Additional Receptors […]
(§4) transporter, 3[H]-WIN35,428, rat striatum; (2) Dopamine D1 receptor, 3[H]-SCH23390, rat striatum; (3) Dopamine D2 receptor, [3H]spiperone, rat striatum; (4) Dopamine D3 receptor, [3H] 7-OH-DPAT, rat olfactory tubercle; (5) Serotonin 5-HT2A receptor, [3H]Ketanserin, rat brain cortex;
(§5) (6) Serotonin 5-HT2C receptor, [3H]mesulergine, rat brain cortex; (7) Adrenergic α2 receptor, [3H]- rauwolscine, rat cerebral cortex; (8) Histamine H2 receptor, [3H]tiotidine, Sf9 cells and […]

muscarinic M1 receptor = target: T3, muscarinic M1 receptor (Homo sapiens, UniProt P11229); assay: Muscarinic M1 receptor binding (peripheral blood lymphocytes); details: lymphocyte suspension and sections
T3 construct: blood lymphocytes were used at a concentration of 1 × 10⁶ cells; endogenous in cells; host or cells: peripheral blood lymphocytes
T3 sequence (P11229 whole entry): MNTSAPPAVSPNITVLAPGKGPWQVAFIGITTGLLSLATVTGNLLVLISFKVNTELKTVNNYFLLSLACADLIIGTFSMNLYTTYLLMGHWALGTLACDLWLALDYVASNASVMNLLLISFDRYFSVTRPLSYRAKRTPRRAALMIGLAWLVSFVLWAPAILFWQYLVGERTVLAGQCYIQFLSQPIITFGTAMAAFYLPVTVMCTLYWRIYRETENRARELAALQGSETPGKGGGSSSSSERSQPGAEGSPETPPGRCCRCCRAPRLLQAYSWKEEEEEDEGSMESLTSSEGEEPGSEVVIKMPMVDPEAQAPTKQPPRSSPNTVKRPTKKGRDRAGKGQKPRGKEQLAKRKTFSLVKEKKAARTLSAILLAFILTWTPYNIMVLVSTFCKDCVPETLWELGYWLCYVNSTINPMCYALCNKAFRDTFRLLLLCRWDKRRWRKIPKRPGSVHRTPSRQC

[4] = target: T4, M5 muscarinic cholinergic receptor (Homo sapiens, UniProt P08912); assay: Muscarinic M5 receptor binding (lymphocyte suspension); details: lymphocyte suspension and sections
T4 construct: blood lymphocytes were used at a concentration of 1 × 10⁶ cells; endogenous in cells; host or cells: peripheral blood lymphocytes
T4 sequence (P08912 whole entry): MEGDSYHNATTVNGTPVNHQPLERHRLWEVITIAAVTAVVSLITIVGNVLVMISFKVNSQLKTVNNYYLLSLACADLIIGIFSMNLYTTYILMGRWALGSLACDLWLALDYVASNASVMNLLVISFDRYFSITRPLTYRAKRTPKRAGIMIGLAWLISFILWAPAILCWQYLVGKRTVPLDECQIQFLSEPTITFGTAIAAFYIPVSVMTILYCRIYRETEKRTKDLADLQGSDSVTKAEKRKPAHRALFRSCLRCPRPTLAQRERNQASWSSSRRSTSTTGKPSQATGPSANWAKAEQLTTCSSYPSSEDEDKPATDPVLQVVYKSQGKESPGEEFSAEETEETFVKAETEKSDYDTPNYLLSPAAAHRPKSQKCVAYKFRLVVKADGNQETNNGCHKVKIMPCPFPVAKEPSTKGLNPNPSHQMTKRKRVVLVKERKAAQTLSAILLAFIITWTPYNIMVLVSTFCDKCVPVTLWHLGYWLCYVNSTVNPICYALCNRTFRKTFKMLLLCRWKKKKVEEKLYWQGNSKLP
Description: as §1, §2, §3, §4, §5

Adrenergic α2 receptor = Adrenergic α2 receptor binding ([3H]-rauwolscine); details: rat cerebral cortex
mice [5] = assay: Tail suspension test (TST); format: in vivo, mouse; details: oral, immobility duration
mice [6] = assay: Locomotor activity test; format: in vivo, mouse; details: oral 5, 10, 20, 40, and 80 mg/kg, 15 min period
Dopamine transporter = Dopamine transporter (Rattus norvegicus, UniProt P23977); assay: Dopamine transporter binding ([3H]-WIN35,428); details: rat striatum; read-out: Ki DAT
Chain of Dopamine transporter (P23977 whole entry): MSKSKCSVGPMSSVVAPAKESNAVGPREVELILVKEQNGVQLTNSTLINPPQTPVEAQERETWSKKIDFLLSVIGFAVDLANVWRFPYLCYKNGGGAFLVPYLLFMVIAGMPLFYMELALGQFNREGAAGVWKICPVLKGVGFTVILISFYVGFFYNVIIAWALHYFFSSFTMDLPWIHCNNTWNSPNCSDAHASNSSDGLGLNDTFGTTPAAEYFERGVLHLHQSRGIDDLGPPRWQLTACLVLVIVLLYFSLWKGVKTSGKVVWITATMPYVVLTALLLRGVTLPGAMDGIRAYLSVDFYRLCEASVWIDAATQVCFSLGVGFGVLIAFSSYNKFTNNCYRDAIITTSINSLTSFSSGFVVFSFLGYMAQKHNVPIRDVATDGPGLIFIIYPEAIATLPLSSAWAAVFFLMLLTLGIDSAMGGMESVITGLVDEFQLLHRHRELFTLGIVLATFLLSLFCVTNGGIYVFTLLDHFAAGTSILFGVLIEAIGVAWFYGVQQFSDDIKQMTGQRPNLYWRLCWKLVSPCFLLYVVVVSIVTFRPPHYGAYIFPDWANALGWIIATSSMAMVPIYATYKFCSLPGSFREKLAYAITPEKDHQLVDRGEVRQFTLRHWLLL

M2 muscarinic receptor = target: T5, M2 muscarinic receptor (Homo sapiens, UniProt P08172); assay: Muscarinic M2 receptor binding (lymphocyte suspension); details: lymphocyte suspension and sections
T5 construct: blood lymphocytes were used at a concentration of 1 × 10⁶ cells; endogenous in cells; host or cells: peripheral blood lymphocytes
T5 sequence (P08172 whole entry): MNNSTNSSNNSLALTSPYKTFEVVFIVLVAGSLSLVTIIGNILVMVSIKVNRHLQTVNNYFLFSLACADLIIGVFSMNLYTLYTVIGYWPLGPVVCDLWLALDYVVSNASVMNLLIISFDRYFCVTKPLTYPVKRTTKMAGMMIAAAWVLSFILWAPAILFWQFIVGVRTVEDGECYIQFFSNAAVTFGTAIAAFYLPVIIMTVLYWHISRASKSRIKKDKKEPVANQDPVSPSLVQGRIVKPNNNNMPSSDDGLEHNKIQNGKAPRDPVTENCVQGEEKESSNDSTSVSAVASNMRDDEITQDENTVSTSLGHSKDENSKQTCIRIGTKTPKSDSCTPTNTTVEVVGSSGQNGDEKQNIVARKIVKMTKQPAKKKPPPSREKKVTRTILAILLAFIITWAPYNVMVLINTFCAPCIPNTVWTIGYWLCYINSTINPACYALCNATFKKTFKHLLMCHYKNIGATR

recombinant hH3R = recombinant hH3R (Homo sapiens, UniProt Q9Y5N1); assay: H3 receptor intrinsic activity assay ([35S]GTPγS binding); format: biochemical
Chain of recombinant hH3R (Q9Y5N1 whole entry): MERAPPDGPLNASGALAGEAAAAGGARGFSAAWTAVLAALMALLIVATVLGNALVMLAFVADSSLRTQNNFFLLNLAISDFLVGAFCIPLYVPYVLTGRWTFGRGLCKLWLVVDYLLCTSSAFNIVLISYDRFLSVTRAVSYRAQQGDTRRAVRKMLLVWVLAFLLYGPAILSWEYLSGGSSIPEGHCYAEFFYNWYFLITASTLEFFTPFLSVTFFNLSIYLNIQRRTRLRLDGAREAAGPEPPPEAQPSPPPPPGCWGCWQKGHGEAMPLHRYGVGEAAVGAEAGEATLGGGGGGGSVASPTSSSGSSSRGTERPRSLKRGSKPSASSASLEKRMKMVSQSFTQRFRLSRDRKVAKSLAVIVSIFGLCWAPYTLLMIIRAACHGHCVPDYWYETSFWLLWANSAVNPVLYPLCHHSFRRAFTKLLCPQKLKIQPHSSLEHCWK

For CN(C)CCC(Oc1cccc2c1OCO2)c1ccc(OCCCN2CCCCC2)cc1.O=C(O)C(=O)O (stereo not drawn) [Compound 11b, 3-(benzo[d][1,3]dioxol-4-yloxy)-N,N-dimethyl-3-(4-(3-(piperidin-1-yl)propoxy)phenyl)propan-1-amine oxalate], the Ki (adrenergic α1 receptor) was 1170 ± 126 nM, the “minimal effective dose (MED) in FST” value (mice [1]) was 6 mg/kg and the Ki [2] was greater than 1000 nM. It also gave an AUC(0-inf) ([3]; 2 mg/kg iv) of 265 ng·h/mL, an AUC(0-t) ([3]; 2 mg/kg iv) of 261 ng·h/mL and a Cmax ([3]; 2 mg/kg iv) of 224 ng/mL. The MRT last ([3]; 2 mg/kg iv) was 1.2 h, the Tmax ([3]; 2 mg/kg iv) was 0.08 h and the half-life ([3]; 2 mg/kg iv) was 1.3 h. The AUC(0-inf) ([3]; 20 mg/kg po) was 944 ng·h/mL, the AUC(0-t) ([3]; 20 mg/kg po) was 942 ng·h/mL and the Cmax ([3]; 20 mg/kg po) was 134 ng/mL. The MRT last ([3]; 20 mg/kg po) was 5.4 h, the Tmax ([3]; 20 mg/kg po) was 2 h and the half-life ([3]; 20 mg/kg po) was 2.6 h. For the same molecule, the bioavailability ([3]; 20 mg/kg po vs 2 mg/kg iv, read-out: F (bioavailability)) was 35.6%, the “Activation (10 μM, %) NET” value (NET; 10 μM, n = 3) was 2.7 ± 0.2% and the inhibition at 10 µM (NET; 10 μM, n = 3) was greater than 90%. The IC50 (NET; [3H]NE uptake, antagonist assay) was 49.6 nM, the Ki (NMDA receptor) was greater than 1000 nM and the Ki (σ1 receptor) was greater than 1000 nM. For the same molecule, the Ki (muscarinic M1 receptor) was greater than 1000 nM, the Ki [4] was greater than 1000 nM and the Ki (Adrenergic α2 receptor) was greater than 1000 nM. For the same molecule, the “minimal effective dose (MED) in TST” value (mice [5]) was 10 mg/kg, the “total travel distance (locomotor activity)” value (mice [6]) was “did not significantly alter the total travel distance” and the Ki (Dopamine transporter) was greater than 1000 nM. For the same molecule, the Ki (M2 muscarinic receptor) was greater than 1000 nM, the inhibition at 10 µM (recombinant hH3R; 10 μM, n = 3) was greater than 90% and the IC50 (recombinant hH3R; antagonist assay, RAMH-induced [35S]GTPγS binding) was 0.72 nM.
